Drawing on patent US20130310379A1, “MODULATORS OF METHYL MODIFYING ENZYMES, COMPOSITIONS AND USES THEREOF” (CONSTELLATION PHARMACEUTICALS, priority 2010, published 2013), this text covers IC50 for 68 compounds.

A value given as a limit tells only on which side of the number the result lay.

Chain of EZH2 (Q15910 whole entry): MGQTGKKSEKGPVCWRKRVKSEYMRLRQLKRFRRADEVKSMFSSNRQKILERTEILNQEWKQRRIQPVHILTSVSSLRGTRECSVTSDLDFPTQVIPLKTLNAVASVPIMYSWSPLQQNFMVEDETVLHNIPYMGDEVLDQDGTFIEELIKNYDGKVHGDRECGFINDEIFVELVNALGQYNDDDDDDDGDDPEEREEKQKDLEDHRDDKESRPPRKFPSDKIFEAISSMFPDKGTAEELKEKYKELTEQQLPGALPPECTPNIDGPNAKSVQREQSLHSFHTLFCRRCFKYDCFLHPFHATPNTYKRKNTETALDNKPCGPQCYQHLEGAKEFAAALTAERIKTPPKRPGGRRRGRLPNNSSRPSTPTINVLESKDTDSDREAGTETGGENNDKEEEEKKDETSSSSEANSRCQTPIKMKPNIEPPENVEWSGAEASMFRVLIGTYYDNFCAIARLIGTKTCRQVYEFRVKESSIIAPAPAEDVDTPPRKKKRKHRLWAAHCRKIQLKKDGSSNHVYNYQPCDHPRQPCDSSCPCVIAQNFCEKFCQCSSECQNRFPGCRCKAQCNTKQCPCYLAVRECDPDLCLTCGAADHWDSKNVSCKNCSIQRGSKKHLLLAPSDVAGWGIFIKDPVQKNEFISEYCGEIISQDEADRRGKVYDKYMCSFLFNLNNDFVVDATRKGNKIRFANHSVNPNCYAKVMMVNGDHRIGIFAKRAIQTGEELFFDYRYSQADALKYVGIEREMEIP
Chain of EZH2 (O75530 whole entry partner): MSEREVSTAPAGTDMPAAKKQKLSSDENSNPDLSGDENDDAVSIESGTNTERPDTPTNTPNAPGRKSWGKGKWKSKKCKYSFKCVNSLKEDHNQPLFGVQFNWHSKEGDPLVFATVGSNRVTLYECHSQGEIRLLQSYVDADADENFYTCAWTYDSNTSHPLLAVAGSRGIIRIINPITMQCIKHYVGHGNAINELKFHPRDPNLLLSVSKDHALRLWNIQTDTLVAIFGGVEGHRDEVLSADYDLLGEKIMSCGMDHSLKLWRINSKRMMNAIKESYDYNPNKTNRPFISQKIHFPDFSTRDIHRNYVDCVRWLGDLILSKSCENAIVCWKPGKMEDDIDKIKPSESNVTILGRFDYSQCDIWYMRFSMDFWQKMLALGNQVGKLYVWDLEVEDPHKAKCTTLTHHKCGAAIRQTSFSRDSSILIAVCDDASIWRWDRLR
Chain of EZH2 (Q15022 whole entry partner): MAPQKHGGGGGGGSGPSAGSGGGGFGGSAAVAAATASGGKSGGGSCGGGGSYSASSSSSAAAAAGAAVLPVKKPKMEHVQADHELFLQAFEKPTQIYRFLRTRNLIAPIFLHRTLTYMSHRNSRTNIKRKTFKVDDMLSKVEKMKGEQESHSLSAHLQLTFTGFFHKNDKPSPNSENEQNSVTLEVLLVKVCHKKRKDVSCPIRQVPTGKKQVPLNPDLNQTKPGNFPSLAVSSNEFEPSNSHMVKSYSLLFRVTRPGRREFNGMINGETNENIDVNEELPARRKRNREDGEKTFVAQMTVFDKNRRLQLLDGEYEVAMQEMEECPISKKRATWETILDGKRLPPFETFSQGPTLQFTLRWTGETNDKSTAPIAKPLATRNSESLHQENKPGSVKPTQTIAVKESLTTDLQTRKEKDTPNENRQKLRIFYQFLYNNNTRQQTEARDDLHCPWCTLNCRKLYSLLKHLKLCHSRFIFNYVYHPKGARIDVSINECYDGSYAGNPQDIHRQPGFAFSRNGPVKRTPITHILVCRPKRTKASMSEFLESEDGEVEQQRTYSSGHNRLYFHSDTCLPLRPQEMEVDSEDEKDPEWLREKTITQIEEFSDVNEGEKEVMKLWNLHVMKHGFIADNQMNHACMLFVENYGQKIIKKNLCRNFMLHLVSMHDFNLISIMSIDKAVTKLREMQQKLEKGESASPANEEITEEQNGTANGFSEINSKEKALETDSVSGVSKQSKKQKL

For this assay, the target named is EZH2 (Homo sapiens, UniProt Q15910). Briefly: EZH2 assay: rPRC2 with biotinylated oligonucleosome substrates and 3H SAM, FlashPlate scintillation counting, IC50. The assay is classed as biochemical. The conditions noted are these: rPRC2, biotinylated oligonucleosome substrates, 3H SAM; read-out: EZH2 IC50. The procedure, abridged:
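IC50 from 4-parameter fit, baselines fixed at 0 and 100%. Compounds (top 80 uM, 2-fold series to 0.16 uM) pre-incubated 20 min with 2 nM EZH2-PRC2; 60-min methylation in pH 8.5 Tris with 0.2 uM 3H SAM, 0.2 uM oligonucleosomes, 3.6 uM H3K27me3 peptide.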
As for `Cn1cc(-c2cccc(Oc3ccc(C(=O)NC4CC(C)(C)NC(C)(C)C4)cc3Cl)c2C#N)cn1` [Compound I-336], the IC50 (as a rule, the midpoint of a concentration-inhibition curve) is less than 5 µM.
The result for `CC1(C)CC(NC(=O)c2ccc(Oc3ccccc3C(C)(C)C)c(Cl)c2)CC(C)(C)N1` [Compound I-210] reads 20 to 80 µM; that for `CNc1cccc(Oc2ccc(C(=O)NC3CC(C)(C)NC(C)(C)C3)cc2Cl)c1C#N` [Compound I-348], less than 5 µM; that for `CC1(C)CC(NC(=O)c2ccc(-n3ccc4c(O)cccc43)c(Cl)c2)CC(C)(C)N1` [Compound I-492], less than 5 µM.
The result for `CC1(C)CC(NC(=O)c2ccc(Oc3cccc(C4CCNCC4)c3C#N)cc2)CC(C)(C)N1` [Compound I-534] reads less than 5 µM.
The result for `CC1(C)CC(NC(=O)c2ccc(OCCc3ccccc3)cc2)CC(C)(C)N1` [Compound I-84] reads greater than 80 µM; that for `CC1CC(NC(=O)c2ccc(Oc3cccc(-c4ccnnc4)c3C#N)c(Cl)c2)CC(C)(C)N1` (centres unmarked) [Compound I-478], less than 5 µM; that for `COc1ccnc(Oc2ccc(C(=O)NC3CC(C)(C)NC(C)(C)C3)cc2)n1` [Compound I-109], greater than 80 µM.
In the case of `CC1(C)CC(NC(=O)c2ccc(COc3cccc(N4CCNCC4)c3)cc2)CC(C)(C)N1` [Compound I-165], the IC50 is greater than 80 µM.
The result for `CC1(C)CC(NC(=O)c2ccc(CCc3ccccc3)cc2)CC(C)(C)N1` [Compound I-241] reads greater than 80 µM.
With `COc1ccncc1-c1ccccc1Oc1ccc(C(=O)NC2CC(C)(C)NC(C)(C)C2)cc1Cl` [Compound I-280], the IC50 is greater than 80 µM.
Take `CC1(C)CC(NC(=O)c2ccc(Oc3ccccc3-c3nn[nH]n3)c(Br)c2)CC(C)(C)N1` [Compound I-282]: the half-maximal inhibitory concentration (IC50) was greater than 80 µM.
Regarding `CC1(C)CC(NC(=O)c2ccc(Oc3ccccc3C3=CCNCC3)c(Cl)c2)CC(C)(C)N1` [Compound I-229], the IC50 was 5 to 20 µM.
The result for `CC1(C)CC(NC(=O)c2ccc(Oc3cccc(Br)c3)cc2)CC(C)(C)N1` [Compound I-180] reads 20 to 80 µM; that for `CC1(C)CC(NC(=O)c2ccc(Oc3ccccc3C3CCCCC3)cc2)CC(C)(C)N1` [Compound I-150], 5 to 20 µM.
In the case of `CC(C)Oc1ccc(C(=O)NC2CC(C)(C)NC(C)(C)C2)cc1` [Compound I-136], the IC50 is greater than 80 µM.
`CC1(C)CC(NC(=O)c2ccc(-c3ccc4cnccc4c3)c(Cl)c2)CC(C)(C)N1` [Compound I-376]: the concentration for half-maximal inhibition (IC50) is 20 to 80 µM.
The result for `CC1(C)CC(NC(=O)c2ccc(Oc3ccncc3)c(Br)c2)CC(C)(C)N1` [Compound I-318] reads 20 to 80 µM; that for `CC1(C)CC(NC(=O)c2ccc(COc3cccc(-c4cnc5[nH]ccc5c4)c3)cc2)CC(C)(C)N1` [Compound I-5], less than 5 µM.
As to `CC1(C)CC(NC(=O)c2ccc(Oc3ccccc3C#N)cc2Cl)CC(C)(C)N1` [Compound I-174], the IC50 was 20 to 80 µM.
The result for `CC1(C)CC(NC(=O)c2ccc(Oc3ccccc3C(=O)O)c(Cl)c2)CC(C)(C)N1` [Compound I-353] reads greater than 80 µM; that for `CC1(C)CC(NC(=O)c2ccc(Oc3cccnc3)cc2)CC(C)(C)N1` [Compound I-21], 20 to 80 µM.
For `CC1(C)CC(NC(=O)c2ccc(-n3ccc4ccccc43)c(Cl)c2)CC(C)(C)N1` [Compound I-328], the 50% inhibitory concentration (IC50) fell in the range of 20 to 80 µM.
Turning to `CC1(C)CC(NC(=O)c2ccc(Oc3cccc(-c4ccc(C#N)nc4)c3C#N)c(Cl)c2)CC(C)(C)N1` [Compound I-526], the IC50 is less than 5 µM.
Turning to `Cc1cc(Oc2ccccc2)ccc1C(=O)NC1CC(C)(C)NC(C)(C)C1` [Compound I-124, 2-methyl-4-phenoxy-N-(2,2,6,6-tetramethylpiperidin-4-yl)-benzamide], the IC50 was greater than 80 µM.
The result for `CC1(C)CC(NC(=O)c2ccc(Oc3ccncc3)cc2)CC(C)(C)N1` [Compound I-319] reads greater than 80 µM; that for `CC1(C)CC(NCc2ccc(Oc3ccccc3C#N)cc2)CC(C)(C)N1` [Compound I-306], greater than 80 µM; that for `COC(=O)c1ccc(COc2ccc(C(=O)NC3CC(C)(C)NC(C)(C)C3)cc2)cc1` [Compound I-117], greater than 80 µM.
The result for `Cc1ccc(-c2cccc(Oc3ccc(C(=O)NC4CC(C)(C)NC(C)(C)C4)cc3Cl)c2C#N)s1` [Compound I-323] reads less than 5 µM.
On to `CNC(C)c1cccc(Oc2ccc(C(=O)NC3CC(C)(C)NC(C)(C)C3)cc2Cl)c1` (centres unmarked) [Compound I-443], for which the IC50 was in the range of 5 to 20 µM.
`CC1(C)CC(CC(=O)O)(NC(=O)c2ccc(Oc3cccc(-c4ccnnc4)c3C#N)c(Cl)c2)CC(C)(C)N1` [Compound I-482]: the IC50 is 20 to 80 µM.
As to `Cc1ccc(OCc2ccc(C(=O)NC3CC(C)(C)NC(C)(C)C3)cc2)cc1C` [Compound I-15], the half-maximal inhibitory concentration (IC50) was in the range of 5 to 20 µM.
On to `CC1(C)CC(NC(=O)c2ccc(Oc3cccc(C(=O)O)c3)c(Cl)c2)CC(C)(C)N1` [Compound I-354], for which the IC50 is greater than 80 µM.
The result for `CC1(C)CC(NC(=O)c2ccc(COc3cccc(-c4cccnc4N)c3)cc2)CC(C)(C)N1` [Compound I-47] reads 20 to 80 µM; that for `N#Cc1ccccc1Oc1ccc(C(=O)NC2CCN(CCN)CC2)cc1Cl` [Compound I-460], greater than 80 µM; that for `CCc1cccc(Oc2ccc(C(=O)NC3CC(C)(C)NC(C)(C)C3)cc2)c1` [Compound I-131], greater than 80 µM.
The result for `CC1(C)CC(NC(=O)c2ccc(OC3CCCNC3)c(Cl)c2)CC(C)(C)N1` (centres unmarked) [Compound I-393] reads greater than 80 µM; that for `CC(C)NCc1cccc(Oc2ccc(C(=O)NC3CC(C)(C)NC(C)(C)C3)cc2Cl)c1` [Compound I-422], 20 to 80 µM; that for `CC1(C)CC(NC(=O)c2ccc(N3CCOc4ccccc43)c(Cl)c2)CC(C)(C)N1` [Compound I-384], 20 to 80 µM.
Consider `CC1(C)CC(NC(=O)c2ccc(NC(=O)c3cccc(Br)c3)cc2)CC(C)(C)N1` [Compound I-162], for which the IC50 fell in the range of 20 to 80 µM.
`CC1(C)CNCCC1NC(=O)c1ccc(Oc2ccccc2C#N)c(Cl)c1` (centres unmarked) [Compound I-406]: the concentration for half-maximal inhibition (IC50) is greater than 80 µM.
The result for `CC1(C)CC(NC(=O)c2ccc(OC3CCCC3)cc2)CC(C)(C)N1` [Compound I-299] reads greater than 80 µM; that for `CC1(C)CC(NC(=O)c2ccc(Oc3ccccc3-c3ccccc3)c(Cl)c2)CC(C)(C)N1` [Compound I-206], less than 5 µM.
The result for `CC1(C)CC(NC(=O)c2ccc(Oc3ccc4ncccc4c3)cc2)CC(C)(C)N1` [Compound I-172] reads greater than 80 µM; that for `CC1(C)CC(NC(=O)c2ccc(Oc3cccc(-c4cccc(C#N)c4)c3C#N)c(Cl)c2)CC(C)(C)N1` [Compound I-505], less than 5 µM; that for `CC1(C)CC(NC(=O)c2ccc(Oc3ccccc3C#N)c(-c3cncnc3)c2)CC(C)(C)N1` [Compound I-202], 5 to 20 µM.
In the case of `CC1(C)CC(NC(=O)c2ccc(Oc3cccc4cnccc34)c(Br)c2)CC(C)(C)N1` [Compound I-291], the IC50 is less than 5 µM.
As for `O=C(N[C@H]1CCN(Cc2ccccc2)C1)c1ccc(Oc2ccccc2)cc1` [Compound I-100], the IC50 is greater than 80 µM.
For the compound `Cc1ccc(OCc2ccc(C(=O)NC3CC(C)(C)NC(C)(C)C3)cc2)c(C)c1` [Compound I-42], the 50% inhibitory concentration (IC50) lay in the range of 20 to 80 µM.
The result for `CC1(C)CC(NC(=O)c2ccc(Oc3ccccc3CC#N)cc2)CC(C)(C)N1` [Compound I-305] reads 20 to 80 µM.
Regarding `Cc1ccccc1Sc1ccc(C(=O)NC2CC(C)(C)NC(C)(C)C2)cc1Cl` [Compound I-302], the concentration for half-maximal inhibition (IC50) was in the range of 20 to 80 µM.
As for `CC1(C)CC(NC(=O)c2ccc(Oc3ccc(Cl)cc3)cc2)CC(C)(C)N1` [Compound I-91], the 50% inhibitory concentration (IC50) is greater than 80 µM.
As to `CN1CCC(NC(=O)c2ccc(Oc3cccc(-c4ccnnc4)c3C#N)c(Cl)c2)CC1` [Compound I-465], the concentration for half-maximal inhibition (IC50) is greater than 80 µM.
Consider `CC1(C)CC(NC(=O)c2ccc(Oc3cc(Br)ccc3C#N)c(Cl)c2)CC(C)(C)N1` [Compound I-255], for which the IC50 is less than 5 µM.
The result for `O=C(N[C@H]1CCN(Cc2ccccc2)C1)c1ccc(Oc2ccccc2)cc1` (stereo in doubt) [Compound I-101] reads greater than 80 µM.
The result for `O=C(NCCc1cccnc1)c1ccc(Oc2ccccc2)cc1` [Compound I-102] reads greater than 80 µM; that for `CC1(C)CC(NC(=O)c2ccc(Oc3ccccc3C#N)c(Cl)c2)C(F)(F)C(C)(C)N1` (centres unmarked) [Compound I-418], 20 to 80 µM; that for `CC1(C)CC(NC(=O)c2ccc(Oc3cccnc3C#N)c(Br)c2)CC(C)(C)N1` [Compound I-219], less than 5 µM.
The result for `CC1(C)CC(NC(=O)c2cccc(COc3ccccc3)c2)CC(C)(C)N1` [Compound I-111] reads greater than 80 µM; that for `Cc1cc(-c2cccc(OCc3ccc(C(=O)NC4CC(C)(C)NC(C)(C)C4)cc3)c2)cnc1F` [Compound I-27], 20 to 80 µM.
`Cc1cc(Oc2ccccc2C#N)ccc1C(=O)NC1CC(C)(C)NC(C)(C)C1` [Compound I-243]: the IC50 is 20 to 80 µM.
Take `CC1(C)CC(NC(=O)c2ccc(-n3ccc4cc(O)ccc43)c(Cl)c2)CC(C)(C)N1` [Compound I-494]: the IC50 is 20 to 80 µM.
The result for `Cc1cc(C(=O)NC2CC(C)(C)NC(C)(C)C2)ccc1Oc1cccc(-c2cccnc2)c1C#N` [Compound I-261] reads less than 5 µM; that for `Cc1nnc2n1-c1ccccc1C(c1ccc(C(=O)NC3CC(C)(C)NC(C)(C)C3)cc1)=NC2` [Compound I-488], greater than 80 µM.
The result for `CC1(C)CC(NC(=O)c2ccc(Oc3cccc(N4CCOCC4)c3C#N)c(Cl)c2)CC(C)(C)N1` [Compound I-391] reads less than 5 µM; that for `CN(c1ccccc1)c1ccc(C(=O)NC2CC(C)(C)NC(C)(C)C2)cc1` [Compound I-108, 4-(Methyl(phenyl)amino)-N-(2,2,6,6-tetramethylpiperidin-4-yl)benzamide], greater than 80 µM; that for `CCc1cc(C(=O)NC2CC(C)(C)NC(C)(C)C2)ccc1Oc1ccccc1C#N` [Compound I-265], less than 5 µM.
As for `CCC(C)c1ccccc1Oc1ccc(C(=O)NC2CC(C)(C)NC(C)(C)C2)cc1` (centres unmarked) [Compound I-170], the half-maximal inhibitory concentration (IC50) was 5 to 20 µM.
